Source: patent US20120251527A1, “PODOCYTE SPECIFIC ASSAYS AND USES THEREOF” (University of Miami, priority 2009, published 2012)

System: NFAT
Assay: Podocyte-NFAT reporter assay (luciferase)
Format: cell-based, mouse
Details: for baseline NFAT activity: wild type (wt) podocytes, single inhibitor, FIG. 8
Text: Podocyte-NFAT reporter assays: A podocyte cell line that stably expressed pGL4.30 reporter plasmid (Promega) was generated. pGL4.30 includes the luc2P firefly luciferase gene under the control of the NFAT response element. For LPS treatments both wt and stable TRPC6 knockdown podocyte cell line were transiently transfected with the pGL4.30 and pGL4.74 reporter plasmids (Promega). pGL4.74 includes the hRluc Renilla luciferase gene under the control of the constitutive HSV-TK promoter, serving as an internal control for normalization of the results. Cells were seeded in 96 well plates in standardized cell number and differentiated for three weeks prior to transfection and treatments. Stable cell lines were probed with BRIGHT-GLO Luciferase Assay System (Promega), transiently transfected cells were assayed with DUAL-GLO Luciferase Assay System (Promega). Luminescence was measured on a Molecular Devices luminescence microplate reader SpectraMax L. All experiments were carried out in octuplicate per condition and repeated in three independent experiments.

| Compound | baseline NFAT activity | NFAT activity after pretreatment with the substance (wt podocytes, versus low baseline, FIG. 6A) |
| --- | --- | --- |
| CN([C@@H](Cc1ccc(OS(=O)(=O)c2cccc3cnccc23)cc1)C(=O)N1CCN(c2ccccc2)CC1)S(=O)(=O)c1cccc2cnccc12 [KN-62] | reduction |  |
| lipopolysaccharide [LPS] |  | strongly increased |
| O=S(=O)(NCCNC/C=C/c1ccc(Br)cc1)c1cccc2cnccc12 [H-89] | reduction |  |
